The values that follow are results of earlier work, collected in patent EP2703009A1, “Combination treatments involving antibodies to human PCSK9” (SANOFI, priority 2012, dated 2014).

SMILES strings stand for the structures.

The conditions of data set [1]: after oral administration; cited from earlier work.
Data set [2] deals with patients with genotype-confirmed hoFH. The following applies: ezetimibe 10 mg/day added to the maximal dose of statins; cited from earlier work.
For data set [3] the following is noted: in vivo; cited from earlier work.
A further data set has as its system PCSK9. The following applies: stated as known for statins and ezetimibe; limited or no information on ezetimibe alone; cited from earlier work.

Take `CC(C)(Oc1ccc(C(=O)c2ccc(Cl)cc2)cc1)C(=O)O` [Fenofibric acid]: the “half-life (elimination from plasma)” value in data set [1] was 20 h.

On to `O=C(O)[C@H]1O[C@@H](Oc2ccc([C@@H]3[C@@H](CC[C@H](O)c4ccc(F)cc4)C(=O)N3c3ccc(F)cc3)cc2)[C@H](O)[C@@H](O)[C@@H]1O` [ezetimibe-glucuronide], for which, in data set [1], the “half-life (elimination from plasma)” value is reported as “approximately 22 hours”.

With `O=C1[C@H](CC[C@H](O)c2ccc(F)cc2)[C@@H](c2ccc(O)cc2)N1c1ccc(F)cc1` [ezetimibe], in data set [2], the “total reduction of LDL-C levels” value is given as 27%. Further, the “Frequent adverse events reported” value in data set [3] is “abdominal pain, diarrhea, flatulence, fatigue, increase ALT/AST, headache and myalgia”. Further, in the data set on PCSK9, the PCSK9 expression entry was “upregulated”.

For `CC(C)OC(=O)C(C)(C)Oc1ccc(C(=O)c2ccc(Cl)cc2)cc1` [fenofibrate], in data set [3], the “Frequent adverse events reported” value is recorded as “abdominal pain, nausea, vomiting, diarrhea, flatulence, increase ALT/AST”; the “Less frequently reported adverse events” value was “pancreatitis, thromboembolism (pulmonary embolism, deep venous thrombosis), biliary lithiasis, rash, pruritus, urticaria, photosensitivity reaction, increase creatinine and increase urea”.
